Data on one substance can be found in US8636979B2, “TLR 4 and 9 receptors agonists for preventing septic complications of post-traumatic immunodepression in patients hospitalized for severe traumatic injuries” (Chu Nantes, priority 2009, dated 2014).

In the test the test system is methicillin-sensitive Staphyloccocus aureus (MSSA) pneumonia after haemorrhagic shock. Briefly: Mortality from MSSA pneumonia after haemorrhagic shock (post-haemorrhagic SI model). The format is in vivo. The settings on record: Balb/cJ mice; i.v. injection immediately after resuscitation from haemorrhagic shock; 7×10^6 CFU MSSA 24 h later; survival followed 7 days. The procedure: An intra-venous injection of CpG-ODN 1668 (100 μl to […]) (HP-CpG group) or the same volume of isotonic saline solution (HP group) was given immediately after resuscitation from haemorrhagic shock. Twenty-four hours later the mice were inoculated with 7×10^6 CFU of MSSA. The survival rate of each group was measured twice a day for 7 days (168 hours). Each group comprised 8 animals. Data are given as a percentage and are representative of three independent experiments each having the same statistical significance (*p≦0.05). HP Group (black diamonds), HP-CpG group (blank squares).
Male Balb/cJ mice (20-24 grams) were obtained from the Janvier breeding company (Laval, France). Mice were kept on a day/night cycle of 12 hours with free access to food and drink. […]
A strain of methicillin-sensitive Staphyloccocus aureus or <<MSSA>> (ATCC strain 29213) was cultured 16 hours at 37° C. in a tryptic soy medium (Grosseron, Saint Herblain, France). […] The bacterial concentration was systematically controlled by quantitative culture. […]
Mortality was assessed twice a day for 7 days. […] Capillary glycaemia was measured using a haemaglucotest (Boehringer Ingelheim France), Venous blood gasometry, reflecting shock intensity and quality of resuscitation, was measured on central venous blood taken from the right atrium.

On to monophosphoryl lipid A [MPLA], for which the “mortality in post-haemorrhagic SI model with MSSA pneumonia” value is “significantly lowered mortality”.
